The subject of data set [1] is MC38 colorectal tumor cell line. Put plainly: Adoptive T cell transfer and MC38 tumor model. Format: in vivo, mouse. The text has this: Similar to the “Adoptive T cells transfer-induced colitis model,” Treg cells were activated in vitro and transduced with pSIRG-GFP expressing sgNT or sgBrd9. Four days after transduction, the GFP+ transduced Treg were FACS sorted. Concurrently, Treg depleted CD4 and CD8 T cells isolated from Rosa-Cas9/Foxp3^Thy1.1 mice were used as effector T cells. A total of 1 million pSIRG-sgRNA transduced GFP+ Treg cells, 1 million effector CD8 T cells, and 2 million Treg-depleted CD4 T cells were mixed and transferred into Rag1^−/− recipient mice. On the following day, mice were implanted with 0.5 million MC38 cells by subcutaneous injection on the flank of mouse. When palpable tumor appeared, tumor size was measured every two day by electronic calipers. At the end point, spleen and tumor were collected for immune profiling. For tumor processing, tumor tissues were minced into small pieces and digested with 0.5 mg/mL Collagenase IV (Sigma #C5138) and DNAase I (Roche #4716728001) for 20 minutes and passed through […] cell strainer to collect single cell suspension. Isolated cells were stimulated with PMA/Ionomycin and GolgiPlug™ for 5 hours, and then were subjected to Foxp3 and cytokines staining with eBioscience® Fix/Perm buffer (eBioscience #00-5523-00).

Another data set has as its system Foxp3 target genes. Put plainly: RNA-seq and gene set enrichment analysis in Treg cells. Format: cell-based, mouse. An excerpt: For large scale Treg culture, Tregs were first expanded in Rosa-Cas9/Foxp3^Thy1.1 mice by injecting IL-2:IL-2 antibody immune complex according protocol described in Webster et. al (J Exp Med 206, 751-760, 2009). Spleen and lymph node Treg cells were labeled with PE-conjugated Thy1.1 antibody and isolated by magnetic selection using anti-PE microbeads (Mitenyl #130-048-801). All isolated Treg cells were activated by plate bound anti-CD3 and anti-CD28 antibodies and cultured with X-VIVO® 20 media (LONZA #04-448Q) supplemented by 1× Pen/Strep, 1× Sodium pyruvate, 1× HEPES, 1× GlutaMax™, 55 μM beta-mercaptoethanol in the presence of IL-2 at 500 units/mL. For experiments with Brd9 degradation, Treg cells were treated at day 0 with 2.5 μM dBRD9 (Tocris #6606) and cultured for four days for RNA- and ChIP-seq and 0.16-10 μM treated at day 0 and cultured dBRD9 for four days for Foxp3 MFI, cell viability and cell proliferation assays. Live cells were enriched by Ficoll-Paque® 1.084 (GE Health 17-5446-02) for RNA-seq and ChIP-seq.
RNA from 1-3×10^6 cells was extracted and purified with TRIzol™ reagent (Thermo Fisher) according to manufacturer's instructions. RNA-seq libraries were prepared using Illumina® TruSeq® Stranded mRNA kit following manufacturer's instructions with 5 μg of input RNA.
Single-end 50 bp reads were aligned to the mouse genome mm10 using STAR alignment tool (V2.5) (Dobin et al., Bioinformatics 29:15-21, 2013). RNA expression was quantified as raw integer counts using analyzeRepeats.pl in HOMER (Heinz et al., Mol Cell 38:576-589, 2010) using the following parameters: -strand both -count exons -condenseGenes -noadj. To identify differentially expressed genes, getDiffExpression.pl in HOMER was used, which uses the DESeq2R package to calculate the biological variation within replicates. Cut-offs were set at log 2 FC=0.585 and FDR at 0.05 (Benjamin-Hochberg). Principal Component Analysis (PCA) was performed with the mean of transcript per million (TPM) values using Cluster 3.0 with the following filter parameters: at least one observation with absolute value equal or greater than two and gene vector of four. TPM values were log transformed then centered on the mean.
GSEA software (Mootha et al., Nat Genet 34:267-273, 2003; Subramanian et al., PNAS 102:15545-15550, 2005) was used to perform the analyses with the following parameters: number of permutations=1000; enrichment statistic=weighted; and metric for ranking of genes=difference of classes (Input RNA-seq data was log-transformed). For GSEA analysis, input RNA-seq data contained the normalized log-transformed reads of the 1,325 differentially expressed genes (DEGs) in sgFoxp3/sgNT Treg cells. The compiled gene list included GSEA Gene Ontology, Immunological Signature, Curated Gene, and the up and down DEGs in sgBrd9/sgNT Treg cells.
For gene expression analysis in FIG. 42F, Foxp3 ChIP-seq tags were quantified at the union of sites bound by Foxp3 in sgNT and sgBrd9 using the annotatePeaks.pl command in HOMER with size-given and each site was annotated to a gene by mapping to the nearest TSS. Sites were ranked from least to largest Foxp3 ChIP-seq Log2FC in sgBrd9 vs sgNT and divided into quartiles. Gene expression for the genes in the top and bottom quartiles (Brd9-dependent and -independent, respectively) was then plotted using RNA-seq data from Treg cells transduced with sgBrd9, sgSmarcd1, or sgPbrm1 compared to sgNT. […]

Setting [2] is: transferred Treg population, vs sgNT.

Consider “sgBrd9: sgRNA targeting Brd9, ATTAACCGGTTTCTCCCGGG (SEQ ID NO: 12) (expressed or natural sequence)”, for which, in data set [1] (Rag1^−/− mice receiving sgRNA transduced Treg cells vs sgNT Treg cells), the tumor growth entry is “significantly slower”. For the same substance, in data set [1] (relative to sgNT Treg cells), the “percentage of transferred Treg cells” value is “reduced”. Besides, in data set [1] (setting [2]), the “GFP^+Foxp3^− ex-Treg population” value was “increase” and the “percentage of ex-Treg cells producing IFN-γ” value is listed as “higher percentage”. Further, the “increase in the ratio of CD8 T cells to Treg cells” value in data set [1] (tumor and spleen, sgBrd9 versus sgNT) is given as 2-3 fold. Also, the “CD4 and CD8 T cell tumor infiltration” value in data set [1] (vs sgNT Treg cells) is “significantly increased”. The “percentage of IFN-γ producing intra-tumor CD4 and CD8 T cells” value in data set [1] (vs sgNT Treg condition) is reported as “significantly greater”. Further, the “enrichment of increased/decreased genes among sgFoxp3 regulated genes (GSEA)” value in the data set on Foxp3 target genes (sgBrd9/sgNT vs sgFoxp3/sgNT Treg cells) was “significantly enriched among genes that increase upon sgFoxp3 targeting”. Further, in the data set on Foxp3 target genes (sgRNA transduced Treg cells vs sgNT), the “gene expression of Brd9-dependent vs Brd9-independent Foxp3 target genes” value was “significantly more affected”.

The values above are taken from patent US20240150755A1, “MODULATING REGULATORY T CELL FUNCTION IN AUTOIMMUNE DISEASE AND CANCER” (Salk Institute for Biological Studies, priority 2021, published 2024).
